Data from US10723699B2 (Hyundai Pharm Co., Ltd., priority 2015, dated 2020).
Like-named read-outs stand apart in the source and are kept apart here.

Target: T1, G protein-coupled receptor 119 (GPR-119) (Mesocricetus auratus, UniProt A0A1U8CD06)
T1 construct: hamster-derived β-cells containing G protein-coupled receptor 119 (GPR-119), HIT-T15 cells; host or cells: HIT-T15 (hamster pancreatic β-cells)
T1 sequence (A0A1U8CD06 1-334): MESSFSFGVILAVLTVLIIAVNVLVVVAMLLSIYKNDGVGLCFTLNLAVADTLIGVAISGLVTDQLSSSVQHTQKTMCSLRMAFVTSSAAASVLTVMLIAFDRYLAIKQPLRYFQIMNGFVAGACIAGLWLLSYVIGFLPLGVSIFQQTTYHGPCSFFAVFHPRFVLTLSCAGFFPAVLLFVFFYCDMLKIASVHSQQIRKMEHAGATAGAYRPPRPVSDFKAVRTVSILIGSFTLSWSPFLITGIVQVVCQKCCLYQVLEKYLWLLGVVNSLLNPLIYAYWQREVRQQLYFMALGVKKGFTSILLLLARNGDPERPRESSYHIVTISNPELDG
Test: cAMP activity in HIT-T15 cells (cAMP dynamic kit, FRET)
Assay type: cell-based, hamster
Method: To check whether the cyclohexene derivatives according to the present invention activate cyclic adenosine monophosphate (cAMP), experiments were carried out, as follows.
The HIT-T15 cells were plated on a 96-well plate at 60,000 cells per well. On the next day of plating, the cells were treated with a varying concentration of each of the example compounds according to the present invention, and incubated at 37° C. for an hour. In this case, each of the treated compounds was used at six concentrations, ranging from 0.0032 to 10 μM, to treat the cells.
The cyclic adenosine monophosphate (cAMP) activity was measured according to the manufacturer's instruction using a cAMP dynamic kit commercially available from Cis Bio Inc. (Bedford, Mass.). The cells were lysed, and a level of cAMP was determined by a competitive immunoassay using D2-labeled cAMP and a cryptate-labeled anti-cAMP antibody. Fluorescence was read in Flex Station (Molecular Devices). […] Unlabeled cAMP in the cell lysate competed with the D2-labeled cAMP against the cryptate-labeled antibody. Since a decrease in the measured intensity of the FRET signals represents a level of cAMP in the cells, the cAMP activities of the compounds are calculated as a change in FRET signals by adjusting an amount of dimethyl sulfoxide (DMSO).

[1] = 1 hour at 37° C., six concentrations 0.0032 to 10 μM, read-out: EC50

CC(C)c1noc(N2CCC(COc3ccc(C4=CCC(C(=O)N5CCOCC5)CC4)cn3)CC2)n1 (stereo not shown) [Example 317, (4-(6-((1-(3-isopropyl-1,2,4-oxadiazol-5-yl)piperidin-4-yl)methoxy)pyridin-3-yl)cyclohex-3-enyl)(morpholino)methanone]
EC50 [1]: 50 nM | EC50 (Table 2, read-out: EC50 value): ≤ 50 nM

CC(C)c1noc(N2CCC(COc3ccc(C4=CCC(C(=O)N5CCSCC5)CC4)cn3)CC2)n1 (stereo not shown) [Example 318, (4-(6-((1-(3-isopropyl-1,2,4-oxadiazol-5-yl)piperidin-4-yl)methoxy)pyridin-3-yl)cyclohex-3-enyl)(thiomorpholino)methanone]
EC50 [1]: 38 nM | EC50 (Table 2, read-out: EC50 value): ≤ 50 nM

CC(C)c1noc(N2CCC(COc3ccc(C4=CCC(C(=O)N5CCC(CCO)CC5)CC4)cn3)CC2)n1 (stereo not shown) [Example 320, (4-(2-hydroxyethyl)piperidin-1-yl)(4-(6-((1-(3-isopropyl-1,2,4-oxadiazol-5-yl)piperidin-4-yl)methoxy)pyridin-3-yl)cyclohex-3-enyl)methanone]
EC50 [1]: 53 nM

CCc1cnc(N2CCC(COc3ccc(C4=CCC(C(=O)N5CCC(C#N)CC5)CC4)cc3F)CC2)nc1 (stereo not shown) [Example 321, 1-(4-(4-((1-(5-ethylpyrimidin-2-yl)piperidin-4-yl)methoxy)-3-fluorophenyl)cyclohex-3-enecarbonyl)piperidine-4-carbonitrile]
EC50 [1]: 28 nM | EC50 (Table 2, read-out: EC50 value): ≤ 50 nM

CCc1cnc(N2CCC(COc3ccc(C4=CCC(C(=O)NCCF)CC4)cc3F)CC2)nc1 (stereo not shown) [Example 322, 4-(4-((1-(5-ethylpyrimidin-2-yl)piperidin-4-yl)methoxy)-3-fluorophenyl)-N-(2-fluoroethyl)cyclohex-3-enecarboxamide]
EC50 [1]: 62 nM

CCc1cnc(N2CCC(COc3ccc(C4=CCC(C(=O)N(CCO)CCO)CC4)cc3F)CC2)nc1 (stereo not shown) [Example 323, 4-(4-((1-(5-ethylpyrimidin-2-yl)piperidin-4-yl)methoxy)-3-fluorophenyl)-N,N-bis(2-hydroxyethyl)cyclohex-3-enecarboxamide]
EC50 [1]: 28 nM | EC50 (Table 2, read-out: EC50 value): ≤ 50 nM

CCc1cnc(N2CCC(COc3ccc(C4=CCC(C(=O)N5CCC(C(N)=O)CC5)CC4)cc3F)CC2)nc1 (stereo not shown) [Example 324, 1-(4-(4-((1-(5-ethylpyrimidin-2-yl)piperidin-4-yl)methoxy)-3-fluorophenyl)cyclohex-3-enecarbonyl)piperidine-4-carboxamide]
EC50 [1]: 27 nM | EC50 (Table 2, read-out: EC50 value): ≤ 50 nM

CC(C)(C)OC(=O)N1CCC(COc2ccc(C3=CCC(C(=O)N4CCC(CO)CC4)CC3)nc2)CC1 (stereo not shown) [Example 325, tert-butyl 4-((6-(4-(4-(hydroxymethyl)piperidine-1-carbonyl)cyclohex-1-enyl)pyridin-3-yloxy)methyl)piperidine-1-carboxylate]
EC50 [1]: 53 nM

CC(C)(C)OC(=O)N1CCC(COc2ccc(C3=CCC(C(=O)N4CCC(CCO)CC4)CC3)nc2)CC1 (stereo not shown) [Example 326, tert-butyl 4-((6-(4-(4-(2-hydroxyethyl)piperidine-1-carbonyl)cyclohex-1-enyl)pyridin-3-yloxy)methyl)piperidine-1-carboxylate]
EC50 [1]: 70 nM

CC(C)(C)OC(=O)N1CCC(COc2ccc(C3=CCC(C(=O)N4CCOCC4)CC3)nc2)CC1 (stereo not shown) [Example 327, tert-butyl 4-((6-(4-(morpholine-4-carbonyl)cyclohex-1-enyl)pyridin-3-yloxy)methyl)piperidine-1-carboxylate]
EC50 [1]: 80 nM

CC(C)(C)OC(=O)N1CCC(COc2ccc(C3=CCC(C(=O)N4CCSCC4)CC3)nc2)CC1 (stereo not shown) [Example 328, tert-butyl 4-((6-(4-(thiomorpholine-4-carbonyl)cyclohex-1-enyl)pyridin-3-yloxy)methyl)piperidine-1-carboxylate]
EC50 [1]: 21 nM | EC50 (Table 2, read-out: EC50 value): ≤ 50 nM

CC(C)c1noc(N2CCC(COc3ccc(C4=CCC(C(=O)N5CCC5)CC4)cc3F)CC2)n1 (stereo not shown) [Example 330, azetidin-1-yl(4-(3-fluoro-4-((1-(3-isopropyl-1,2,4-oxadiazol-5-yl)piperidin-4-yl)methoxy)phenyl)cyclohex-3-enyl)methanone]
EC50 [1]: 35 nM | EC50 (Table 2, read-out: EC50 value): ≤ 50 nM

CC(C)c1noc(N2CCC(COc3ccc(C4=CCC(C(=O)N5CCCC5)CC4)cc3F)CC2)n1 (stereo not shown) [Example 331, (4-(3-fluoro-4-((1-(3-isopropyl-1,2,4-oxadiazol-5-yl)piperidin-4-yl)methoxy)phenyl)cyclohex-3-enyl)(pyrrolidin-1-yl)methanone]
EC50 [1]: 11 nM | EC50 (Table 2, read-out: EC50 value): ≤ 50 nM

CC(C)c1noc(N2CCC(COc3ccc(C4=CCC(C(=O)N5CCCCC5)CC4)cc3F)CC2)n1 (stereo not shown) [Example 332, (4-(3-fluoro-4-((1-(3-isopropyl-1,2,4-oxadiazol-5-yl)piperidin-4-yl)methoxy)phenyl)cyclohex-3-enyl)(piperidin-1-yl)methanone]
EC50 [1]: 6.7 nM | EC50 (Table 2, read-out: EC50 value): ≤ 50 nM

CC(C)c1noc(N2CCC(COc3ccc(C4=CCC(C(=O)N5CCC(CO)CC5)CC4)cc3F)CC2)n1 (stereo not shown) [Example 333, (4-(3-fluoro-4-((1-(3-isopropyl-1,2,4-oxadiazol-5-yl)piperidin-4-yl)methoxy)phenyl)cyclohex-3-enyl)(4-(hydroxymethyl)piperidin-1-yl)methanone]
EC50 [1]: 30 nM | EC50 (Table 2, read-out: EC50 value): ≤ 50 nM

CC(C)c1noc(N2CCC(COc3ccc(C4=CCC(C(=O)N5CC(O)C5)CC4)cc3F)CC2)n1 (stereo not shown) [Example 334, (4-(3-fluoro-4-((1-(3-isopropyl-1,2,4-oxadiazol-5-yl)piperidin-4-yl)methoxy)phenyl)cyclohex-3-enyl)(3-hydroxyazetidin-1-yl)methanone]
EC50 [1]: 52 nM

CC(C)c1noc(N2CCC(COc3ccc(C4=CCC(C(=O)N5CCC(CCO)CC5)CC4)cc3F)CC2)n1 (stereo not shown) [Example 335, (4-(3-fluoro-4-((1-(3-isopropyl-1,2,4-oxadiazol-5-yl)piperidin-4-yl)methoxy)phenyl)cyclohex-3-enyl)(4-(2-hydroxyethyl)piperidin-1-yl)methanone]
EC50 [1]: 18 nM | EC50 (Table 2, read-out: EC50 value): ≤ 50 nM

CC(C)c1noc(N2CCC(COc3ccc(C4=CCC(C(=O)N5CCC(N6CCCC6)CC5)CC4)cc3F)CC2)n1 (stereo not shown) [Example 336, (4-(3-fluoro-4-((1-(3-isopropyl-1,2,4-oxadiazol-5-yl)piperidin-4-yl)methoxy)phenyl)cyclohex-3-enyl)(4-(pyrrolidin-1-yl)piperidin-1-yl)methanone]
EC50 [1]: 180 nM

CC(C)c1noc(N2CCC(COc3ccc(C4=CCC(C(=O)N5CC(=NO)C5)CC4)cn3)CC2)n1 (stereo not shown) [Example 337, (3-(hydroxyimino)azetidin-1-yl)(4-(6-((1-(3-isopropyl-1,2,4-oxadiazol-5-yl)piperidin-4-yl)methoxy)pyridin-3-yl)cyclohex-3-enyl)methanone]
EC50 [1]: 160 nM

CC(C)c1noc(N2CCC(COc3ccc(C4=CCC(C(=O)N5CCC(C#N)CC5)CC4)cn3)CC2)n1 (stereo not shown) [Example 338, 1-(4-(6-((1-(3-isopropyl-1,2,4-oxadiazol-5-yl)piperidin-4-yl)methoxy)pyridin-3-yl)cyclohex-3-enecarbonyl)piperidine-4-carbonitrile]
EC50 [1]: 40 nM | EC50 (Table 2, read-out: EC50 value): ≤ 50 nM

CC(C)c1noc(N2CCC(COc3ccc(C4=CCC(C(=O)N5CCC5)CC4)cn3)CC2)n1 (stereo not shown) [Example 339, azetidin-1-yl(4-(6-((1-(3-isopropyl-1,2,4-oxadiazol-5-yl)piperidin-4-yl)methoxy)pyridin-3-yl)cyclohex-3-enyl)methanone]
EC50 [1]: 120 nM

CC(C)(C)OC(=O)N1CCC(COc2ccc(C3=CCC(C(=O)N4CCC(C#N)CC4)CC3)nc2)CC1 (stereo not shown) [Example 340, tert-butyl 4-((6-(4-(4-cyanopiperidine-1-carbonyl)cyclohex-1-enyl)pyridin-3-yloxy)methyl)piperidine-1-carboxylate]
EC50 [1]: 28 nM | EC50 (Table 2, read-out: EC50 value): ≤ 50 nM

CN(CCO)C(=O)C1CC=C(c2ccc(OCC3CCN(C(=O)OC(C)(C)C)CC3)cn2)CC1 (stereo not shown) [Example 341, tert-butyl 4-((6-(4-((2-hydroxyethyl)(methyl)carbamoyl)cyclohex-1-enyl)pyridin-3-yloxy)methyl)piperidine-1-carboxylate]
EC50 [1]: 180 nM

CC(C)(C)OC(=O)N1CCC(COc2ccc(C3=CCC(C(=O)N4CCC(=NO)CC4)CC3)nc2)CC1 (stereo not shown) [Example 344, tert-butyl 4-((6-(4-(4-(hydroxyimino)piperidine-1-carbonyl)cyclohex-1-enyl)pyridin-3-yloxy)methyl)piperidine-1-carboxylate]
EC50 [1]: 45 nM | EC50 (Table 2, read-out: EC50 value): ≤ 50 nM

CC(C)c1noc(N2CCC(COc3ccc(C4=CCC(C(=O)N5CCC(=O)CC5)CC4)cc3F)CC2)n1 (stereo not shown) [Example 345, 1-(4-(3-fluoro-4-((1-(3-isopropyl-1,2,4-oxadiazol-5-yl)piperidin-4-yl)methoxy)phenyl)cyclohex-3-enecarbonyl)piperid in-4-one]
EC50 (EC50 (nM), 1 hour at 37° C., six concentrations 0.0032 to 10 μM): 36 nM | EC50 (EC50 value, Table 2): ≤ 50 nM
